Test [1] has as its target T1, recombinant human estrogen receptors-alpha (ER-α) (Homo sapiens, UniProt P03372).
T1 construct: purchased
T1 sequence (P03372 1-595): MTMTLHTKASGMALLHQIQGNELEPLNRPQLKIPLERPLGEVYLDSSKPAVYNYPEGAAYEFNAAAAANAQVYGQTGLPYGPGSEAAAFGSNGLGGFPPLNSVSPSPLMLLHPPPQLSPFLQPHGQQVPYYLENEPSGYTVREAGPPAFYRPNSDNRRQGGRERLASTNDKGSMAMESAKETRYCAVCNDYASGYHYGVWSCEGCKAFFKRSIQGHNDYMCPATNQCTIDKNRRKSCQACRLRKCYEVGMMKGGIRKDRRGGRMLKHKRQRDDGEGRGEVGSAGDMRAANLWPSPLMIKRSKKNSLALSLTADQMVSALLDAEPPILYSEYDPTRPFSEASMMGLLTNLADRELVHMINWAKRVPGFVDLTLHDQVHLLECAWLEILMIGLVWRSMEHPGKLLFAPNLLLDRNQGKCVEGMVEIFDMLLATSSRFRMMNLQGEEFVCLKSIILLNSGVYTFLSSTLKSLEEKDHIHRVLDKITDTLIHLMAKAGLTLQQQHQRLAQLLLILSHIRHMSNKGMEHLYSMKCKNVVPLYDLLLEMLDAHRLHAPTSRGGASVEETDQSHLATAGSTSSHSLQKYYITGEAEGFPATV
Put plainly: Estrogen receptor competitive binding assay (fluorescence polarization kit), ER-α. As for the experimental part: (§1) The ability of the tetraphenolic dimer (Structure 3) and tetraacetoxy dimer (Structure 2) to interact with estrogen receptor alpha and beta was determined using a commercially available estrogen receptor binding kit. This kit employs a competitive binding assay to determine the relative binding affinity of test compounds for recombinant human estrogen receptors-alpha (ER-α) and beta (ER-β). […] The complex is then added to decreasing concentrations of competitor test compounds. The shift in polarization in the presence of test compound is used to determine the relative affinity of test compounds for the estrogen receptor.
(In general: Polarisation of emitted light reports the rotation of a fluorescent probe.)

The target in test [2] is T2, recombinant human estrogen receptor beta (ER-β) (Homo sapiens, UniProt Q92731).
T2 construct: purchased
Description: Estrogen receptor competitive binding assay (fluorescence polarization kit), ER-β. Here is the method: as §1

The next test concerns breast (MCF-7). Put plainly: Cell cytotoxicity assay (MTT), MCF-7. In kind it is cell-based, human. As for the experimental part:
(§2) The anticancer potential of the tetraphenolic dimer (Structure 3) and the tetraacetoxy dimer (Structure 2) was assessed using a panel of human tumour cell lines, including glioma (C6), prostate (PC3), breast (MCF-7), soft tissue (Kym-1) and lung (NCI-H23 and NCI-H460). The cell cytotoxicity assay was conducted as per the method of Alley et al., 1988. Cell lines are exposed to varying concentrations of test compound for a fixed time. At the conclusion of the assay, the viability of the cell population is determined using the hydrogen acceptor reagent 3-(4,5-dimethylthiazol-2-yl)-2,5 diphenyltetrazolium bromide (MTT). The concentration of compound required to inhibit 50% of cell growth in comparison to a control (IC50) is an indicator of effectiveness of the compound. (i.e. the lower the concentration of compound required to inhibit 50% of normal cell proliferation, the more efficacious).

A further test relates to lung (NCI-H23). Put plainly: Cell cytotoxicity assay (MTT), NCI-H23. Format: cell-based, human. Conditions: read-out: Cell Line IC50 NCI-H23. Here is the method: as §2
A further test deals with prostate (PC3). Put plainly: Cell cytotoxicity assay (MTT), PC3. Format: cell-based, human. Conditions: read-out: Cell Line IC50 PC3. As for the experimental part: as §2
Another test concerns soft tissue (Kym-1). Description: Cell cytotoxicity assay (MTT), Kym-1. Format: cell-based. Particulars: Homo sapiens, read-out: Cell Line IC50 Kym-1. As for the experimental part: as §2
Another test relates to lung (NCI-H460). Description: Cell cytotoxicity assay (MTT), NCI-H460. In kind it is cell-based. Conditions: Homo sapiens, read-out: Cell Line IC50 NCI-H460. Here is the method: as §2
Another test concerns glioma (C6). Description: Cell cytotoxicity assay (MTT), C6 glioma. In kind it is cell-based, human. Particulars: Rattus norvegicus, read-out: Cell Line IC50 C6 Glioma. Here is the method:
as §2

Where two headings read alike, the source gives them in different places.

The IC50 is the midpoint of a concentration-inhibition curve.

T2 sequence (Q92731 whole entry): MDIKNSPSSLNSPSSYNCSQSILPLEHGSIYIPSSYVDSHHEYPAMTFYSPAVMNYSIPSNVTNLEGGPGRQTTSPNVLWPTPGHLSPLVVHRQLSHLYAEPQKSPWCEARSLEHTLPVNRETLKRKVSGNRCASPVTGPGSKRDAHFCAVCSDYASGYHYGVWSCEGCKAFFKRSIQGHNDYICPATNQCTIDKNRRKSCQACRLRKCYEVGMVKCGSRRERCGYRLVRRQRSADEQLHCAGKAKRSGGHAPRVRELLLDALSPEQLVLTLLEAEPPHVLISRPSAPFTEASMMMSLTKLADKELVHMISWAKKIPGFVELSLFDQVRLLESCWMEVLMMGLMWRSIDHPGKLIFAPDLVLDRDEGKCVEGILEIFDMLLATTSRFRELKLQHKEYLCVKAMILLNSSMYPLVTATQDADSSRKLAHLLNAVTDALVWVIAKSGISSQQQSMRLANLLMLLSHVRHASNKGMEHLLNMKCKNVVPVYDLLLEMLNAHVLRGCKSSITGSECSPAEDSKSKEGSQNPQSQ

With `CC(=O)Oc1ccc(C2=Cc3cc(C4c5ccc(OC(C)=O)cc5OCC4c4ccc(OC(C)=O)cc4)c(OC(C)=O)cc3OC2)cc1` (stereo not shown) [Structure 2, Tetraacetoxy 6-(4-(isoflavan-4′,7-diol))-isoflav-3-ene-4′,7-diol], in test [1], the “binding to ER-α (in words)” value is “did not bind”. Further, the “binding to ER-β (in words)” value in test [2] is “did not bind”. The IC50 in the test on breast (MCF-7) (read-out: Cell Line IC50 MCF-7) worked out at 10 ± 5 µM; in the test on lung (NCI-H23) it was 7.3 µM; with prostate (PC3), 6 µM.
For `Oc1ccc(C2=Cc3cc(C4c5ccc(O)cc5OCC4c4ccc(O)cc4)c(O)cc3OC2)cc1` (stereo not shown) [Structure 3, 6-(4-(Isoflavan-4′,7-diol))-isoflav-3-ene-4′,7-diol], the EC50 was found to be 0.35 ± 0.05 µM in test [1] (read-out: concentration required to displace 50% of bound fluorescent estrogen ligand (EC50), ER-alpha) and 0.37 ± 0.05 µM in test [2] (read-out: concentration required to displace 50% of bound fluorescent estrogen ligand (EC50), ER-beta). Moreover, the IC50 stood at 3.2 µM in the test on soft tissue (Kym-1); 14.4 µM with lung (NCI-H460); 18 ± 2 µM with breast (MCF-7) (Homo sapiens, MCF7, read-out: Cell Line IC50 MCF-7); 17.5 µM in the test on glioma (C6); 13.5 µM in the test with lung (NCI-H23) (Homo sapiens); 13.5 µM in the test on prostate (PC3) (Homo sapiens).

Values taken from US7312344B2, “Dimeric isoflavones” (Novogen Research Pty Limited, priority 2001, dated 2007).
